The test system of this test is BJ1 (normal skin fibroblasts). The experiment in a line: MTT assay, normal cell line BJ1. In kind it is cell-based. To be noted: Skin fibroblast, 48 hours. The protocol:
The percentage of the cell viability treated with the newly synthesized compounds was evaluated using MTT assay (3-(4,5-dimethylthiazol-2-yl)-2,5-diphenyl tetrazolium bromide). All the subsequent steps were done in a sterile Laminar flow class II biosafety cabinet (Baker, SG406INT, Sanford, ME, USA). DMEM was used as a suspension medium for breast cancer (MCF7), prostate cancer (PC3), and pancreatic cancer (PACA2), while normal cell line (BJ1) was suspended in DMEM-F12 medium, a 1% antibiotic-antimycotic mixture (10 000 U ml^−1 potassium penicillin, 10 000 μg ml^−1 streptomycin sulfate, and 25 μg ml^−1 amphotericin B), and 1% L-glutamine at 37 °C under 5% CO2.
Cells were cultured for 10 days and then seeded at a concentration of 10 × 10^4 cells per well in fresh complete growth medium in 96-well microtiter plastic plates at 37 °C for 24 hours under 5% CO2 using a water-jacketed carbon dioxide incubator (Sheldon, TC2323). Media were aspirated, serum-free fresh medium was added, and cells were incubated either alone (negative control) or with different concentrations of the synthesized chalcone derivatives to a final concentration of (100–50–25–12.5–6.25–3.125–0.78 and 1.56 μg ml^−1). After incubation for 48 hours, the medium was aspirated and 40 μl of MTT salt ([…]) was added to each well and incubated for another four hours at 37 °C under 5% CO2. To stop the reaction and dissolve the formed crystals, 200 μl of 10% sodium dodecyl sulfate (SDS) in deionized water was added to each well and incubated overnight at 37 °C.
The absorbance was then measured at 595 nm and a reference wavelength of 620 nm using a microplate multi-well reader (Bio-Rad Laboratories Inc., model 3350). Statistical significance was tested between the samples and the negative control (cells with vehicle) using an independent t-test using the SPSS 11 program. DMSO was the vehicle used for the dissolution of the synthesized chalcones, and its final concentration on the cells was less than 0.2%. The percentage of change in viability was calculated according to the formula: ((reading of extract/reading of negative control) − 1) × 100. A Probit analysis was carried out for the determination of IC50 using the SPSS 11 program.

In turn, `COc1cccc2c1C(=O)c1c(O)c3c(c(O)c1C2=O)C[C@@](O)(C(=O)CO)C[C@@H]3O[C@H]1C[C@H](N)[C@H](O)[C@H](C)O1` [Doxorubicin, reference compound] had a 50% inhibitory concentration (IC50) of 13.6 ± 0.28 µM.

Source of the values: publication PMC11232109, “Synthesis, anticancer evaluation of novel hybrid pyrazole-based chalcones, molecular docking, DNA fragmentation, and gene expression: in vitro studies” (RSC Advances, 2024).
